Reference: US9822139B2, “Pharmaceutical composition containing cyclometalated N-heterocyclic carbene complexes for cancer treatment” (THE UNIVERSITY OF HONG KONG, priority 2009, dated 2017)

How the values were obtained:
[1] = tested on: hepatocellular carcinoma (HepG2); assay: MTT cytotoxicity assay, HepG2; format: cell-based, human; conditions: 72 h
Procedure: (§1) Example 2 describes the in vitro cytotoxicity, which is indicative of the induction of cell death and/or inhibition of cellular proliferation of cancer cells, of the cyclometalated N-heterocyclic complexes on cervical epithelioid carcinoma, hepatocellular carcinoma, leukemia, nasopharyngeal carcinoma, breast carcinoma, melanoma, and lung carcinoma.
(§2) By means of MTT assays, the cytotoxic properties of cyclometalated N-heterocyclic carbene complexes (1-25) were determined toward some established human cancer cell lines including hepatocellular carcinoma (HepG2), cervical epithelioid carcinoma (HeLa), epithelial carcinoma (KB and its camptothecin-resistant cell line KB100), non-small cell lung carcinoma (NCI-H460), leukemia (HL-60), breast carcinoma (MDA-MB-231), melanoma (B16) and nasopharyngeal carcinoma (SUNE1). […] In terms of the IC50 values, they display similar cytotoxic properties compared to the reference complexes cisplatin and camptothecin (CPT).

[2] = tested on: cervical epithelioid carcinoma (HeLa); assay: MTT cytotoxicity assay, HeLa; format: cell-based, human; conditions: 72 h
Procedure: as §1, §2

[3] = tested on: epithelial carcinoma (KB); assay: MTT cytotoxicity assay, KB; format: cell-based, human; conditions: 72 h
Procedure: as §1, §2

[4] = tested on: camptothecin-resistant cell line KB100; assay: MTT cytotoxicity assay, KB100; format: cell-based, human; conditions: 72 h
Procedure: as §1, §2

[5] = tested on: nasopharyngeal carcinoma (SUNE1); assay: MTT cytotoxicity assay, SUNE1; format: cell-based, human; conditions: 72 h
Procedure: as §1, §2

[6] = tested on: non-small cell lung carcinoma (NCI-H460); assay: MTT cytotoxicity assay, NCI-H460; format: cell-based, human; conditions: 72 h
Procedure: as §1, §2

[7] = tested on: breast carcinoma (MDA-MB-231); assay: MTT cytotoxicity assay, MDA-MB-231; format: cell-based, human; conditions: 72 h, MBA-MD-231
Procedure: as §1, §2

melanoma (B16) = assay: MTT cytotoxicity assay, B16; format: cell-based, mouse; conditions: 72 h
Procedure: as §1, §2

leukemia (HL-60) = assay: MTT cytotoxicity assay, HL-60; format: cell-based, human; conditions: 72 h
Procedure: as §1, §2

[8] = tested on: lung fibroblast cells (CCD-19Lu); assay: MTT cytotoxicity to non-cancerous cells, CCD-19Lu; format: cell-based, human; conditions: 72 h, non-cancerous lung fibroblast cells CCD-19Lu
Procedure: as §2
Using lung fibroblast cells (CCD-19Lu), the cytotoxicity of the complexes to non-cancerous cells was also examined.

NCI-H460 tumor = assay: In vivo anti-cancer study, NCI-H460 tumor in nude mice; set-up: species or system BALB/c AnN-nu mice (nude mice); conditions: twice-a-week intraperitoneal injection; for inhibition of NCI-H460 tumor growth: 28 days
Excerpt: For the complex 14, four-week-old male BALB/c AnN-nu mice (nude mice) were obtained from the laboratory of PearL Materia Medica Development (Shenzhen) Ltd. Tumor cells (1×10^6) resuspended in DMEM medium were implanted by subcutaneous injection on the right flank of the mice. When tumors were approximately 50 mm^3 in size, animals were randomly separated into four groups to receive treatment of twice-a-week intraperitoneal injection of 20% PET vehicle control (20% PET=12% polyethylene glycol 400; 6% ethanol; 2% Tween 20; 80% phosphate-buffered saline), complex 14 at 1 mg/kg, complex 14 at 3 mg/kg or cyclophosphamide at 30 mg/kg. Volumes of the tumor were measured every 3 to 4 days. Tumor volume was calculated by the formula: abc/2 in which a, represents tumor length; b, the width; and c, tumor thickness, as measured with a caliper and expressed in millimeter. After 28 days, the mice were sacrificed and the tumors were taken out and their weights were measured.

SUNE1 cells = assay: Apoptosis induction by flow cytometry (AV-FITC / PI); format: cell-based; conditions: 72 h
Procedure: Since cancer is characterized by uncontrolled cellular proliferation, there is a considerable interest in chemotherapeutic-induced apoptosis [J. C. Reed, Nature Rev. Drug Discov. 2002, 1, 111; D. W. Nicholson, Nature 2000, 407, 810]. Using fluorescein-labeled annexin V (AV-FITC) and propidium iodide (PI), the apoptosis-inducing properties of complex 1 in SUNE1 cells were examined by flow cytometry. […] The apoptosis-inducing properties of complex 1 at a lower dose (12 μM for 72 h) were also examined. […] According to the propagation profiles (formazan absorbance A550nm vs incubation time) of the treated SUNE1 cells, there is a trend of cellular growth inhibition in the presence of complex 1 at 12 μM level. Taken together with the flow cytometric results, complex 1 appears to inhibit cancer cell proliferation at 12 μM and induce apoptosis at higher doses (i.e. 60 μM).
The apoptosis-inducing properties of complex 14 in SUNE1 cells were also examined by flow cytometry. […] The apoptosis-inducing properties of complex 14 at a lower dose (1 μM for 72 h) were also examined. […] Thus, complex 14 could induce apoptosis at 10 μM.

KB cells = assay: Alkaline comet assay for DNA strand breaks; format: cell-based

| Structure (SMILES) | IC50 [1] | IC50 [2] | IC50 [3] | IC50 [4] | IC50 [5] | IC50 [6] | IC50 [7] | IC50 (melanoma (B16)) | IC50 (leukemia (HL-60)) | IC50 [8] | inhibition of NCI-H460 tumor growth (NCI-H460 tumor; 1 mg/kg) | inhibition of NCI-H460 tumor growth (NCI-H460 tumor; 3 mg/kg) | body-weight loss (NCI-H460 tumor; 3 or 1 mg/kg) | viable cells unstained by both AV-FITC and PI (SUNE1 cells; 1 μM) | SUNE1 cells in early apoptotic state (SUNE1 cells; 10 μM) | strand breaks on chromosomal DNA (comet assay) (KB cells; 1 μg/ml, 3 h, KB cells) | reversal of DNA cleavage events upon second incubation (KB cells; second incubation at 55° C. for 10 min) |
| --- | --- | --- | --- | --- | --- | --- | --- | --- | --- | --- | --- | --- | --- | --- | --- | --- | --- |
| CCCCn1cc[n+](C[n+]2ccn(CCCC)[c]2[Au-]23[c]4ccccc4-c4cccc([n+]42)-c2cccc[c]23)[c]1[Au-]12[c]3ccccc3-c3cccc([n+]31)-c1cccc[c]12.O=S(=O)([O-])C(F)(F)F.O=S(=O)([O-])C(F)(F)F [Complex 2] | 7900 nM | 7800 nM | 10000 nM | 28000 nM | 3300 nM | 3000 nM | 4200 nM | 10000 nM | 5900 nM | > 100000 nM |  |  |  |  |  |  |  |
| CC(C)c1cc(C(C)C)c(-n2cc[n+](-c3c(C(C)C)cc(C(C)C)cc3C(C)C)[c]2[Au-]23[c]4ccccc4-c4cccc([n+]42)-c2cccc[c]23)c(C(C)C)c1.O=S(=O)([O-])C(F)(F)F [Complex 4] | 1900 nM | 2700 nM | 3600 nM | 4500 nM | 5500 nM | 6200 nM | 3700 nM | 7700 nM | 1100 nM | 11000 nM |  |  |  |  |  |  |  |
| Cc1cc(C)c(-[n+]2ccn(CC(=O)c3ccccc3)[c]2[Au-]23[c]4ccccc4-c4cccc([n+]42)-c2cccc[c]23)c(C)c1.O=S(=O)([O-])C(F)(F)F [Complex 5] | 2600 nM | 3500 nM | 4400 nM | 4000 nM | 3400 nM | 9500 nM | 13000 nM | 2100 nM | 1200 nM | 11000 nM |  |  |  |  |  |  |  |
| COc1ccc(-c2cc3[n+]4c(c2)-c2cc5ccccc5c[c]2[Au-]4([c]2n(C)cc[n+]2C)[c]2cc4ccccc4cc2-3)cc1.O=S(=O)([O-])C(F)(F)F [Complex 8] | 1000 nM | 500 nM | 420 nM | 18000 nM | 260 nM | 180 nM | 960 nM | 560 nM | 130 nM | 890 nM |  |  |  |  |  |  |  |
| CCCCn1cc[n+](C[n+]2ccn(CCCC)[c]2[Au-]23[c]4cc5ccccc5cc4-c4cc(-c5ccc(OC)cc5)cc([n+]42)-c2cc4ccccc4c[c]23)[c]1[Au-]12[c]3cc4ccccc4cc3-c3cc(-c4ccc(OC)cc4)cc([n+]31)-c1cc3ccccc3c[c]12.O=S(=O)([O-])C(F)(F)F.O=S(=O)([O-])C(F)(F)F [Complex 9] | 4500 nM | 7200 nM | 5000 nM | 3800 nM | 4500 nM | 5500 nM | 6200 nM | 9100 nM | 7100 nM | 9900 nM |  |  |  |  |  |  |  |
| Cn1cc[n+](C)[c]1[Pt-2]12[c]3ccccc3-c3cccc([n+]31)-c1cccc[n+]12.F[P-](F)(F)(F)(F)F (stereo not shown) [Complex 11] | 310 nM | 330 nM | 660 nM | 620 nM | 510 nM | 580 nM | 1500 nM | 3100 nM | 580 nM | 5700 nM |  |  |  |  |  |  |  |
| CCn1cc[n+](CC)[c]1[Pt-2]12[c]3ccccc3-c3cccc([n+]31)-c1cccc[n+]12.F[P-](F)(F)(F)(F)F (stereo not shown) [Complex 12] | 1300 nM | 480 nM | 890 nM | 770 nM | 320 nM | 570 nM | 1200 nM | 1800 nM | 520 nM | 2100 nM |  |  |  |  |  |  |  |
| CCCn1cc[n+](CCC)[c]1[Pt-2]12[c]3ccccc3-c3cccc([n+]31)-c1cccc[n+]12.F[P-](F)(F)(F)(F)F (stereo not shown) [Complex 13] | 1100 nM | 50 nM | 140 nM | 130 nM | 160 nM | 180 nM | 280 nM | 420 nM | 560 nM | 12000 nM |  |  |  |  |  |  |  |
| CCCCn1cc[n+](CCCC)[c]1[Pt-2]12[c]3ccccc3-c3cccc([n+]31)-c1cccc[n+]12.F[P-](F)(F)(F)(F)F (stereo not shown) [Complex 14] | 770 nM | 50 nM | 40 nM | 80 nM | 140 nM | 90 nM | 40 nM | 150 nM | 80 nM | 10000 nM | significantly less effective | 55% | no significant weight loss | ~90% | 46.4% |  |  |
| CCCC[n+]1ccn(Cn2cc[n+](CCCC)[c]2[Pt-2]23[c]4ccccc4-c4cccc([n+]42)-c2cccc[n+]23)[c]1[Pt-2]12[c]3ccccc3-c3cccc([n+]31)-c1cccc[n+]12.F[P-](F)(F)(F)(F)F.F[P-](F)(F)(F)(F)F (stereo not shown) [Complex 15] | 9400 nM | 8000 nM |  |  | 6400 nM |  |  |  |  | 40000 nM |  |  |  |  |  |  |  |
| CCCC[n+]1ccn(CCCn2cc[n+](CCCC)[c]2[Pt-2]23[c]4ccccc4-c4cccc([n+]42)-c2cccc[n+]23)[c]1[Pt-2]12[c]3ccccc3-c3cccc([n+]31)-c1cccc[n+]12.F[P-](F)(F)(F)(F)F.F[P-](F)(F)(F)(F)F (stereo not shown) [Complex 16] | 7100 nM | 3900 nM |  |  | 5600 nM |  |  |  |  | 27000 nM |  |  |  |  |  |  |  |
| Cc1cc(C)c(-[n+]2ccn(CCCO)[c]2[Pt-2]23[c]4ccccc4-c4cccc([n+]42)-c2cccc[n+]23)c(C)c1.F[P-](F)(F)(F)(F)F (stereo not shown) [Complex 23] | 780 nM | 480 nM |  |  | 940 nM |  |  |  |  | 7500 nM |  |  |  |  |  |  |  |
| CCCn1cc[n+](CCC)[c]1[Pt-2]12[c]3ccccc3-c3cccc([n+]31)-c1cc3ccccc3c[n+]12.F[P-](F)(F)(F)(F)F (stereo not shown) [Complex 24] | 880 nM | 550 nM |  |  | 710 nM |  |  |  |  | 12000 nM |  |  |  |  |  |  |  |
| CCCCn1cc[n+](CCO)[c]1[Pt-2]12[c]3ccccc3-c3cccc([n+]31)-c1cc3ccccc3c[n+]12.F[P-](F)(F)(F)(F)F (stereo not shown) [Complex 25] | 680 nM | 450 nM |  |  | 880 nM |  |  |  |  | 11000 nM |  |  |  |  |  |  |  |
| N.N.[Cl][Pt][Cl] [cisplatin, reference compound] | 14600 nM | 14900 nM |  |  | 2400 nM |  |  |  |  | > 100000 nM |  |  |  |  |  |  |  |
| COc1cccc2c1C(=O)c1c(O)c3c(c(O)c1C2=O)C[C@@](O)(C(=O)CO)C[C@@H]3O[C@H]1C[C@H](N)[C@H](O)[C@H](C)O1 [doxorubicin] |  |  |  |  |  |  |  |  |  |  |  |  |  |  |  | induced extensive strand breaks on chromosomal DNA | not |
